Data taken from ChEMBL document CHEMBL3994576, “Targeting Alzheimer's disease by investigating previously unexplored chemical space surrounding the cholinesterase inhibitor donepezil” (Eur J Med Chem, 2017).

Legend:
[1] = target: Acetylcholinesterase (Electrophorus electricus, UniProt O42275); test: Inhibition of electric eel AChE using acetylthiocholine iodide as substrate by Ellman's method
[2] = tested on: SH-SY5Y; test: cells; assay type: ADME, cell-based; settings: Homo sapiens, 72 h;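 also: cytotoxicity read out with an SRB assay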
[3] = clinical; settings: human, in vivo, po
[4] = Elimination half life in human; assay type: ADME; settings: read-out: beta t1/2

Sequence of Acetylcholinesterase (O42275 whole entry): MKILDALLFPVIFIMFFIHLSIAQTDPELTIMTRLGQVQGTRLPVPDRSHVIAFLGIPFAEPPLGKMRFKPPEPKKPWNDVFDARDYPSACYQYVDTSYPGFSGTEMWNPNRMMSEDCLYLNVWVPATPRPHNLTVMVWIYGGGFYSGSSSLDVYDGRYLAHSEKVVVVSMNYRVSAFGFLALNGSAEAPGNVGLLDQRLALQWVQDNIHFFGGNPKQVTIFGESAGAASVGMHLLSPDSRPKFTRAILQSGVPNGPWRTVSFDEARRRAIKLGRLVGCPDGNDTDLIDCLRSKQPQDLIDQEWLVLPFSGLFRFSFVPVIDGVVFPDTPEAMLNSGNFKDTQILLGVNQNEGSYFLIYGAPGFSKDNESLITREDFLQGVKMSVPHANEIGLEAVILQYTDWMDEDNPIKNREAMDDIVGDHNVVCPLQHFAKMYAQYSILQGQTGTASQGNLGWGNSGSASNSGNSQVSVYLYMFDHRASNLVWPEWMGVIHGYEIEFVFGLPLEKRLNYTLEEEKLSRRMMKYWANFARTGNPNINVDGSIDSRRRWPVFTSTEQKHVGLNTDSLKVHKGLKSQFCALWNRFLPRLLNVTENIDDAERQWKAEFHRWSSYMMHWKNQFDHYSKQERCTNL

Structure (SMILES) | IC50 [1] [µM] | IC50 [2] [µM] | bioavailability [3] [%] | half-life [4] [h]
COc1cc2c(cc1OC)C(=O)C(C(=O)OCC1CCCN1Cc1ccccc1)C2 (stereo not given) | > 10 | – | – | –
COc1cc2c(cc1OC)C(=O)/C(=C/C1CCCN1Cc1ccccc1)C2 (stereo not given) | > 10 | 19 | – | –
COc1cc2c(cc1OC)C(=O)/C(=C/C1CCN(Cc3ccccc3)CC1)C2 | 0.42 | 3.99 | – | –
COc1cc2c(cc1OC)C(=O)C(OC(=O)C1CCN(Cc3ccccc3)CC1)C2 (stereo not given) | – | > 100 | – | –
COc1cc2c(cc1OC)C(=O)/C(=C/C1CN1Cc1ccccc1)C2 (stereo not given) | > 10 | – | – | –
COc1cc2c(cc1OC)C(=O)C(C(=O)C1CCN(Cc3ccccc3)CC1)C2 (stereo not given) | 0.66 | 63.9 | – | –
COc1cc2c(cc1OC)C(=O)C(CC1CN(Cc3ccccc3)C1)C2 (stereo not given) | 1.13 | 8.01 | – | –
COc1cc2c(cc1OC)C(=O)C(C(=O)OCC1CCCN(Cc3ccccc3)C1)C2 (stereo not given) | > 10 | – | – | –
COc1cc2c(cc1OC)C(=O)/C(=C/C1CCN(Cc3ccccc3)C1)C2 (stereo not given) | 0.52 | 6.59 | – | –
COc1cc2c(cc1OC)C(=O)/C(=C/C1CN(Cc3ccccc3)C1)C2 | 0.7 | 1.26 | – | –
COc1cc2c(cc1OC)C(=O)C(C[C@@H]1CCCN1Cc1ccccc1)C2 (stereo not given in full) | 3.16 | – | – | –
COc1cc2c(cc1OC)C(=O)/C(=C/C1CCN1Cc1ccccc1)C2 (stereo not given) | > 10 | – | – | –
COc1cc2c(cc1OC)C(=O)C(C(=O)OCC1CCCCN1Cc1ccccc1)C2 (stereo not given) | > 10 | – | – | –
COc1cc2c(cc1OC)C(=O)C(C(=O)OCC1CCN(Cc3ccccc3)C1)C2 (stereo not given) | > 10 | – | – | –
COc1cc2c(cc1OC)C(=O)/C(=C/C1CCCN(Cc3ccccc3)C1)C2 (stereo not given) | 1.18 | 4.72 | – | –
COc1cc2c(cc1OC)C(=O)/C(=C/C1CCCCN1Cc1ccccc1)C2 (stereo not given) | 0.75 | – | – | –
COc1cc2c(cc1OC)C(=O)C(CC1CCN1Cc1ccccc1)C2 (stereo not given) | > 10 | 58.5 | – | –
COc1cc2c(cc1OC)C(=O)C(CC1CCCN(Cc3ccccc3)C1)C2 (stereo not given) | 0.51 | 66.7 | – | –
COc1cc2c(cc1OC)C(=O)C(C(=O)OCC1CN(Cc3ccccc3)C1)C2 (stereo not given) | > 10 | > 100 | – | –
COc1cc2c(cc1OC)C(=O)C(C(=O)OCC1CCN1Cc1ccccc1)C2 (stereo not given) | > 10 | – | – | –
COc1cc2c(cc1OC)C(=O)C(CC1CCN(Cc3ccccc3)C1)C2 (stereo not given) | 1.74 | – | – | –
COc1cc2c(cc1OC)C(=O)C(C(=O)OCC1CN1Cc1ccccc1)C2 (stereo not given) | > 10 | – | – | –
COc1cc2c(cc1OC)C(=O)C(C(=O)OC1CCN(Cc3ccccc3)CC1)C2 (stereo not given) | 3.03 | > 100 | – | –
COc1cc2c(cc1OC)C(=O)C(CC1CCCCN1Cc1ccccc1)C2 (stereo not given) | 0.46 | > 100 | – | –
COc1cc2c(cc1OC)C(=O)C(C(=O)OCC1CCN(Cc3ccccc3)CC1)C2 (stereo not given) | > 10 | – | – | –
COc1cc2c(cc1OC)C(=O)C(CC1CCN(Cc3ccccc3)CC1)C2 (stereo not given) [DONEPEZIL] | – | 15.5 | 100 | 70 to 80
